Reference: ChEMBL document CHEMBL1134928, “Synthesis and evaluation of potent pyrrolidine H(3) antagonists” (Bioorg Med Chem Lett, 2002)

Legend:
[1] = target: T1, Histamine H3 receptor (Rattus norvegicus, UniProt Q9QYN8); assay: Binding affinity against rat histamine H3 receptor
[2] = target: T2, Histamine H2 receptor (Homo sapiens, UniProt P25021); assay: Binding affinity to the human Histamine H2 receptor
[3] = target: T3, Histamine H1 receptor (Homo sapiens, UniProt P35367); assay: Binding affinity to the human Histamine H1 receptor
T3 sequence (P35367 whole entry): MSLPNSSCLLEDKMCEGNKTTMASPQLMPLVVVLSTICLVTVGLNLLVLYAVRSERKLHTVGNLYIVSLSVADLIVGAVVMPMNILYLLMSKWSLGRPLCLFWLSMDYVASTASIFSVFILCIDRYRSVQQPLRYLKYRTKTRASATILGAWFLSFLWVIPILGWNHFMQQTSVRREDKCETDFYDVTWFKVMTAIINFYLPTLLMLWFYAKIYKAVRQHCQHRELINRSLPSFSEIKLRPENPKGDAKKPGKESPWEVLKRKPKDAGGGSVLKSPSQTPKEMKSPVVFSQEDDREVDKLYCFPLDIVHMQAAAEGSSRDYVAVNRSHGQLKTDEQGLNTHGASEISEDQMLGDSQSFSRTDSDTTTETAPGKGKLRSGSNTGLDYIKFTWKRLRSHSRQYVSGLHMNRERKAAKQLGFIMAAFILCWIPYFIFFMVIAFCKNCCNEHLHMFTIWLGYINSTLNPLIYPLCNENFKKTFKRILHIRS

[4] = target: T1, Histamine H3 receptor; assay: Binding affinity towards rat Histamine H3 receptor (For compound 11)
[5] = target: T3, Histamine H1 receptor; assay: Binding affinity towards human Histamine H1 receptor (For compound 11)
[6] = target: T2, Histamine H2 receptor; assay: Binding affinity towards human Histamine H2 receptor (For compound 11)
[7] = target: T1, Histamine H3 receptor; assay: Binding affinity towards rats Histamine type 3 (H3) receptor

T1 sequence (Q9QYN8 whole entry): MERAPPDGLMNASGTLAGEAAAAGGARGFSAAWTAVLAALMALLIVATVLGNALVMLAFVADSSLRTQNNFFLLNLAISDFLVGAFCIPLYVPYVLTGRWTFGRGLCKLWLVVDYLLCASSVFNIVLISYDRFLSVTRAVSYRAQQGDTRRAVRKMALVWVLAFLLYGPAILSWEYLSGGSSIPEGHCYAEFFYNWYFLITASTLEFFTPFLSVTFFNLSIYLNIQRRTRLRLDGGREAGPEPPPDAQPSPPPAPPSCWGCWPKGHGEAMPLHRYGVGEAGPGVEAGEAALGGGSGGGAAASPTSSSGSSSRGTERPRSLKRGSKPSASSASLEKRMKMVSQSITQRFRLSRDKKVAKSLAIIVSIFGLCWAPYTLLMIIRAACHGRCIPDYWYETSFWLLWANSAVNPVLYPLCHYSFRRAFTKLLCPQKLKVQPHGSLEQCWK
T2 sequence (P25021 whole entry): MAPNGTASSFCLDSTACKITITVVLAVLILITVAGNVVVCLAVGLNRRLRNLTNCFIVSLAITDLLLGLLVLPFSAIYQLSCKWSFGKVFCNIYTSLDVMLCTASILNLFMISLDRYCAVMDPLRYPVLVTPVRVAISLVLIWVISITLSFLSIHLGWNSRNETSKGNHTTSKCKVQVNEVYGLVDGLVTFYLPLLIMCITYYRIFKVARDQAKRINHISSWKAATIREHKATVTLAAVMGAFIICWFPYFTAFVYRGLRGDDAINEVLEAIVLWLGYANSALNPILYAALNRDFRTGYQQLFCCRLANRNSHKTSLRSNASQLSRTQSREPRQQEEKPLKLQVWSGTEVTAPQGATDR

| Compound | Ki [1] [µM] | Ki [2] [µM] | Ki [3] [µM] | further results |
| --- | --- | --- | --- | --- |
| O=C(c1ccc(OCCCN2CC[C@H](NS(=O)(=O)c3cccc(Cl)c3)C2)cc1)C1CC1 | 0.003 | 0.7 | 3.6 | – |
| CC(=O)c1ccc(OCCCN2CC[C@H](N)C2)cc1 | – | 50 | 90 | Ki [4]: 0.676 µM; Ki [5]: 100 µM; Ki [6]: 31 µM |
| O=C(c1ccc(OCCCN2C[C@@H]3C[C@H]2CN3C(=O)c2ccco2)cc1)C1CC1 | 0.208 | – | – | – |
| N#Cc1ccc(S(=O)(=O)N[C@H]2CCN(CCCOc3ccc(C(=O)C4CC4)cc3)C2)cc1 | 0.004 | 1.6 | 20 | – |
| O=C(c1ccc(OCCCN2C[C@@H]3C[C@H]2CN3C(=O)c2ccccn2)cc1)C1CC1 | 0.191 | – | – | – |
| O=C(N[C@H]1CCN(CCCOc2ccc(C(=O)C3CC3)cc2)C1)c1csc(-c2cccnc2)n1 | 0.05 | 4 | 37 | – |
| N#Cc1ccccc1S(=O)(=O)N[C@H]1CCN(CCCOc2ccc(C(=O)C3CC3)cc2)C1 | 0.011 | 0.71 | 6.2 | – |
| O=C(c1ccc(OCCCN2CC[C@H](NS(=O)(=O)c3ccc(F)cc3)C2)cc1)C1CC1 | 0.0035 | 0.5 | 9.2 | – |
| N#Cc1cccc(S(=O)(=O)N[C@H]2CCN(CCCOc3ccc(C(=O)C4CC4)cc3)C2)c1 | 0.0028 | 0.9 | 8.9 | – |
| CC(=O)c1ccc(OCCCN2CC[C@H](NC(=O)[C@@H](C)NC(=O)OC(C)(C)C)C2)cc1 | 0.307 | 40 | 56 | – |
| CC(=O)c1ccc(OCCCN2CC[C@H](NS(=O)(=O)c3ccc(C#N)cc3)C2)cc1 | 0.006 | 2.3 | 14 | – |
| CC(C)(C)c1ccc(S(=O)(=O)N[C@H]2CCN(CCCOc3ccc(C(=O)C4CC4)cc3)C2)cc1 | 0.0052 | 0.73 | 2.3 | – |
| O=C(c1ccc(OCCCN2C[C@@H]3C[C@H]2CN3C(=O)C2CCCCC2)cc1)C1CC1 | 0.134 | – | – | – |
| Cc1ccc(S(=O)(=O)N[C@H]2CCN(CCCOc3ccc(C(=O)C4CC4)cc3)C2)cc1 | 0.0042 | 0.38 | 5.5 | – |
| C[C@@H](NC(=O)N1C[C@@H]2C[C@H]1CN2CCCOc1ccc(C(=O)C2CC2)cc1)C(=O)O | 0.413 | – | – | – |
| Cc1ccccc1S(=O)(=O)N[C@H]1CCN(CCCOc2ccc(C(=O)C3CC3)cc2)C1 | 0.011 | 2.2 | 16 | – |
| CC(=O)c1ccc(OCCCN2CC[C@H](NC(=O)[C@H](C)NC(=O)OC(C)(C)C)C2)cc1 | 0.901 | 24 | 60 | – |
| Cn1cnc(S(=O)(=O)N[C@H]2CCN(CCCOc3ccc(C(=O)C4CC4)cc3)C2)c1 | 0.01 | 7.1 | 91 | – |
| Cc1cccc(S(=O)(=O)N[C@H]2CCN(CCCOc3ccc(C(=O)C4CC4)cc3)C2)c1 | 0.0027 | 1.8 | 6.6 | – |
| O=C(c1ccc(OCCCN2CC[C@H](NS(=O)(=O)c3ccc(Cl)cc3)C2)cc1)C1CC1 | 0.0038 | 0.29 | 2.5 | – |
| CC(=O)c1ccc(OCCCN2CC[C@H](NC(=O)c3cnccn3)C2)cc1 | 0.202 | 5 | 10 | – |

| Compound | Ki [1] [µM] | Ki [2] [µM] | Ki [3] [µM] | further results |
| --- | --- | --- | --- | --- |
| O=C(c1ccc(OCCCN2C[C@@H]3C[C@H]2CN3C(=O)c2ccc(F)cc2)cc1)C1CC1 | 0.258 | – | – | – |
| CC(=O)c1ccc(OCCCN2CC[C@H](NC(=O)c3csc(-c4cccnc4)n3)C2)cc1 | 0.055 | 6.2 | 11 | – |
| O=C(c1ccc(OCCCN2CC[C@H](NS(=O)(=O)c3ccc(Br)cc3)C2)cc1)C1CC1 | 0.005 | 0.29 | 1.5 | – |
| O=C(c1ccc(OCCCN2CC[C@H](NS(=O)(=O)c3ccccc3F)C2)cc1)C1CC1 | 0.0027 | 1.55 | 9.4 | – |
| O=C(c1ccc(OCCCN2CC[C@H](NS(=O)(=O)c3cccc(F)c3)C2)cc1)C1CC1 | 0.0016 | 1.6 | 5.9 | – |
| CCc1ccc(S(=O)(=O)N[C@H]2CCN(CCCOc3ccc(C(=O)C4CC4)cc3)C2)cc1 | 0.0046 | 0.33 | 2.3 | – |
| O=C(c1ccc(OCCCN2C[C@@H]3C[C@H]2CN3S(=O)(=O)c2ccccc2)cc1)C1CC1 | 0.019 | – | – | – |
| COc1ccc(S(=O)(=O)N[C@H]2CCN(CCCOc3ccc(C(=O)C4CC4)cc3)C2)cc1 | 0.0029 | 1 | 4.4 | – |
| CCS(=O)(=O)N1C[C@@H]2C[C@H]1CN2CCCOc1ccc(C(=O)C2CC2)cc1 | 0.12 | – | – | – |
| CC(=O)c1ccc(OCCCN2CC[C@H](NC(=O)[C@H](CO)NC(=O)OC(C)(C)C)C2)cc1 | 0.587 | 46 | 75 | – |
| C[C@H](NC(=O)N1C[C@@H]2C[C@H]1CN2CCCOc1ccc(C(=O)C2CC2)cc1)C(=O)O | 0.232 | – | – | – |
| O=C(c1ccc(OCCCN2CC[C@H](NS(=O)(=O)c3ccccc3Cl)C2)cc1)C1CC1 | – | 1 | 4.5 | – |
| O=C(O)CCNC(=O)N1C[C@@H]2C[C@H]1CN2CCCOc1ccc(C(=O)C2CC2)cc1 | 0.017 | – | – | – |
| CC(=O)c1ccc(OCCCN2CC[C@H](NC(=O)c3cccnc3)C2)cc1 | – | 3.5 | 7.4 | – |
| O=C(c1ccc(OCCCN2CC[C@H](NS(=O)(=O)c3ccccc3)C2)cc1)C1CC1 | 0.003 | 1.2 | 9.1 | – |
| CC(=O)c1ccc(OCCCN2CC[C@H](NC(=O)[C@@H](CO)NC(=O)OC(C)(C)C)C2)cc1 | 0.31 | 100 | 80 | – |
| CCCCCC(=O)c1ccc(OCCCN2CCN(C(=O)OCC)CC2)cc1 | – | – | – | Ki [7]: 0.002 µM |
| CC(C)(C)OC(=O)NCCC(=O)N1C[C@@H]2C[C@H]1CN2CCCOc1ccc(C(=O)C2CC2)cc1 | 0.071 | – | – | – |
| CC(=O)c1ccc(OCCCN2CC[C@H](NC(=O)[C@@H](N)CO)C2)cc1 | 0.151 | 22 | 43 | – |
| O=C(c1ccc(OCCCN2C[C@@H]3C[C@H]2CN3C(=O)c2ccccc2)cc1)C1CC1 | 0.344 | – | – | – |
| CC(=O)c1ccc(OCCCN2CC[C@H](NC(=O)c3ccc(C#N)cc3)C2)cc1 | 0.04 | 6.1 | 13 | – |
